This is an account of results in paper PMC3921138, “Identification and Biochemical Characterization of Four Wood-Associated Glucuronoxylan Methyltransferases in Populus” (PLoS ONE, 2014).

What all share (experiment): radiometric […]-methyl transfer, Lineweaver-Burk
What all share (type): biochemical
What all share (conditions): co-substrate S-[14C-methyl]adenosylmethionine; 100 mM Tris-HCl pH 8.0, 1 mM CoCl2, 0.5% Triton X-100; temperature of kinetic assay not stated; read-out: apparent K m

The target of assay [1] is T1, PtrGXM2 (Populus trichocarpa, UniProt W8JCL4).
T1 construct: gene GXM2; transmembrane domain removed; E. coli; full-length start MRPKSQQ, recombinant start SSSQESS, C-terminus DRPFCPE (translated from primers)
T1 sequence (W8JCL4 33-288): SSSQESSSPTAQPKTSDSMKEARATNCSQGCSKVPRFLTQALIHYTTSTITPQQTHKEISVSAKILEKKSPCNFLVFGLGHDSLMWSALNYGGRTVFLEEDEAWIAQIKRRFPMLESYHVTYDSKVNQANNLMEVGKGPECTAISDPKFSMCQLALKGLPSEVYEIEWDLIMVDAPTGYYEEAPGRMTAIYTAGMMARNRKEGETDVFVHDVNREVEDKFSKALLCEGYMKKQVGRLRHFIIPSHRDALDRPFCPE

For assay [2], the target named is T2, PtrGXM4 (Populus trichocarpa, UniProt W8JN21).
T2 construct: gene GXM4; transmembrane domain removed; E. coli; full-length start MRSKNQS, recombinant start SPRPNSS, C-terminus SGKPFCP (translated from primers)
T2 sequence (W8JN21 34-301): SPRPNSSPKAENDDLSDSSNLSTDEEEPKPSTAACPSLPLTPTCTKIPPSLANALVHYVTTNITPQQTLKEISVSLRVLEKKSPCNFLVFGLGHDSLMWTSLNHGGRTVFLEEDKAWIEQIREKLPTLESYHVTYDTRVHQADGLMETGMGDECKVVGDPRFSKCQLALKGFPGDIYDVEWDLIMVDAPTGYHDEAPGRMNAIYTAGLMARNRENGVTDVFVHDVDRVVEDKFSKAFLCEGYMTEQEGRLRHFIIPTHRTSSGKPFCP

Assay [3] concerns the target T3, PtrGXM1 (Populus trichocarpa, UniProt W8JDL1).
T3 construct: gene GXM1; transmembrane domain removed; E. coli; full-length start MRPKGQ, recombinant start PSSQESP, C-terminus DRPFCPE (translated from primers)
T3 sequence (W8JDL1 33-288): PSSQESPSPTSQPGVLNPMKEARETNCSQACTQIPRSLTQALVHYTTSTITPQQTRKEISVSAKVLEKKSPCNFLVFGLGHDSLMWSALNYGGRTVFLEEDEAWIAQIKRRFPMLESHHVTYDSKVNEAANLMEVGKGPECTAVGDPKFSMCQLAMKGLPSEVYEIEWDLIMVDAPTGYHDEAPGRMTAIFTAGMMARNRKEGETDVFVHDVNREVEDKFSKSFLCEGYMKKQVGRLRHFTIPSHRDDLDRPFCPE

For assay [4], the target named is T4, PtrGXM3 (Populus trichocarpa, UniProt A9PC88).
T4 construct: gene GXM3; transmembrane domain removed; E. coli; full-length start MRPNKNQ, recombinant start SSPRSNP, C-terminus SGRPFCP (translated from primers)
T4 sequence (A9PC88 34-304): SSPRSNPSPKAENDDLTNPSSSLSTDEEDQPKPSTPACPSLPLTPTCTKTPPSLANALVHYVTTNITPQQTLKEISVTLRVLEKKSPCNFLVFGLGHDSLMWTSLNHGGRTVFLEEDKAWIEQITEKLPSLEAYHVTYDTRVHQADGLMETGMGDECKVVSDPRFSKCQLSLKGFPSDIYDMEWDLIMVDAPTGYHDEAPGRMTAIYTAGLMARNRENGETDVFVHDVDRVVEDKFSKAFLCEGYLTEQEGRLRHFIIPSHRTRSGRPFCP

In the case of GlcA-substituted Xyl4, the Km in assay [1] worked out at 3980 µM; in assay [2], 290 µM; in assay [3], 3250 µM; in assay [4], 300 µM.
